The subject of test [1] is OVCA429 cells. The experiment in a line: colony formation assay, control and ARID1A CRISPR OVCA429 cells. The following applies: 1.25 μM. In kind it is cell-based, human. The method, then: FIG. 72 illustrates control and ARID1A CRISPR OVCA429 cells treated with or without 1.25 μM ACY1215 in a colony formation assay.
FIG. 73 illustrates the quantification of ARID1A CRISPR OVCA429 cells treated with or without 1.25 μM ACY1215 in a colony formation assay; n=4 independent experiments.
Generation of ARID1A CRISPR OVCA429 cells. OVCA429 cells were transfected with CRISPR-ARID1A (pSpCas9(BB)-2A-Puro (PX459)). The ARID1A gRNA sequence is: 5′-[…]-3′ (SEQ ID NO:33). Fugene6 transfection reagent (Promega) was used as per manufacturer's specifications. Clonal populations for the loss of ARID1A expression were screened through immunoblot.
Colony formation assays were performed as follows. Cell lines were infected with lentivirus pLKO.1-shRNAs or pLKO.1-control with puromycin selection marker. Infected cells were selected with 1 μg/mL of puromycin for 72 hours and the selected cells were seeded in 12-well or 24-well plates. Cell medium was changed every three days with appropriate drug doses for 14 days or until control wells became confluent. Colonies were washed twice with PBS and fixed with 10% methanol and 10% acetic acid in distilled water. Fixed colonies were stained with 0.005% crystal violet. Integrated density was measured using NIH ImageJ software.

Test [2] has as its system ARID1A wild-type RMG1 tumors. The experiment in a line: intrabursal orthotopic xenograft, ARID1A wild-type RMG1. The class given is in vivo, mice. The procedure:
The consecutive sections of tumors dissected from the indicated treatment groups were subjected to immunohistochemical staining for HDAC6, Ki67, cleaved caspase 3 and p53K120AC. Scale bar=100 μm.
Histological score (H-score) was calculated for 5 separate fields from 6 tumors from 6 individual mice from each of the indicated groups. Error bars represent S.E.M. The p-values were calculated via two-tailed t-test.
Immunofluorescence and immunohistochemical staining was performed as follows. Immunofluorescence was performed after 48 hours as indicated by fixing samples in 4% paraformaldehyde and permeabilizing with 0.5% Triton-X. Samples were incubated with primary antibodies for 2 hours at room temperature, highly cross absorbed secondary antibodies (Invitrogen) for 1 hour at room temperature and mounted with prolong anti-fade reagent (Invitrogen). […] Expression of the stained markers was scored using a histologic score (H score) as previously described. […]
The intrabursal orthotopic xenograft in vivo model was performed as described previously (Bitler et al. Nat. Med. 2015, 21, 231-238; Bitler et al. Cancer Research 2011, 71, 6184-6194). […] Images were analyzed using Live Imaging 4.0 software. At end of the experiments, tumors were surgically dissected and tumor burden was calculated based on tumor weight. Intraperitoneally disseminated tumor nodules were quantified.

Molecules are shown by their SMILES.

With `O=C(CCCCCCNC(=O)c1cnc(N(c2ccccc2)c2ccccc2)nc1)NO` [rocilinostat, 2-(diphenylamino)-N-(7-(hydroxyamino)-7-oxoheptyl)pyrimidine-5-carboxamide], in test [1], the “effect of ARID1A knockout on sensitivity” value is “significantly increased the sensitivity”. The “growth, tumor burden, dissemination of ARID1A wild-type tumors” value in test [2] (50 mg/kg daily, 3 weeks) is listed as “did not significantly affect the growth, tumor burden or dissemination”. Besides, the “expression of Ki67, cleaved caspase 3, p53K120Ac (IHC)” value in test [2] (ARID1A wild-type tumors) is “did not affect the expression of Ki67, cleaved caspase 3, or p53K120Ac”.

For the origin of these results see patent publication US20190192521A1, “Methods of Treating Arid1A-Mutated Cancers With HDAC6 Inhibitors and EZH2 Inhibitors” (The Wistar Institute of Anatomy and Biology, priority 2016, published 2019).
